Here are results for 3 compounds from patent US6984635B1, “Dimerizing agents, their production and use” (Board of Trustees of The Leland Stanford Jr. University, priority 1998, dated 2006).

Common to all, as to format: cell-based
Assay [1] concerns the target T1, Gal4-FKBP3 / FRB*-VP16 (FRB harboring T2098L, W2101F, and K2095P) (Homo sapiens, UniProt P42345+P62942, K2095P/T2098L/W2101F).
T1 construct: FRB*-VP16 (FRB harboring T2098L, W2101F, and K2095P) replaces wild type FRB-VP16; expressed in transfected cells; host or cells: Jurkat cells
Description: activation of transcription in Jurkat cells transfected with Gal4-FKBP3, FRB*-VP16 and UAS-SEAP. The settings on record: for amplitude of reporter gene activity: FRB*-VP16, compared with rapamycin/wild type FRB-VP16 system; for EC50: FRB*-VP16 replaces wild type FRB-VP16, read-out: EC50 of reporter gene activity. The text has this:
(§1) The ability of the rapalogs to multimerize chimeric proteins may be measured in cell-based assays by measuring the occurrence of an event triggered by such multimerization. For instance, one may use cells containing and capable of expressing DNA encoding a first chimeric protein comprising one or more FKBP-domains and one or more effector domains as well as DNA encoding a second chimeric protein containing an FRB domain and one or more effector domains capable, upon multimerization, of actuating a biological response. We prefer to use cells which further contain a reporter gene under the transcriptional control of a regulatory element (i.e., promoter) which is responsive to the multimerization of the chimeric proteins. The design and preparation of illustrative components and their use in so engineered cells is described in WO96/41865 and the other international patent applications referred to in this and the foregoing section. The cells are grown or maintained in culture. A rapalog is added to the culture medium and after a suitable incubation period (to permit gene expression and secretion, e.g. several hours or overnight) the presence of the reporter gene product is measured. Positive results, i.e., multimerization, correlates with transcription of the reporter gene as observed by the appearance of the reporter gene product. The reporter gene product may be a conveniently detectable protein (e.g. by ELISA) or may catalyze the production of a conveniently detectable product (e.g. colored). Materials and methods for producing appropriate cell lines for conducting such assays are disclosed in the international patent applications cited above in this section. Typically used target genes include by way of example SEAP, hGH, beta-galactosidase, Green Fluorescent Protein and luciferase, for which convenient assays are commercially available.
Likewise, C3-allyl rapamycin and C3-methallyl rapamycin were impaired in their ability to activate transcription in Jurkat cells transfected with Gal4-FKBP3, wild type FRB-VP16, and UAS-SEAP. […] C3 derivatives of rapamycin have impaired toxicity (immunosuppressive activity) and can be used efficiently as dimerizers in conjunction with engineered FRB domains. Preparation of 24(S),30(S)-tetrahydro-C3-rapalogs [drawing 30]

In assay [2] the target is T2, Gal4-FKBP3 / wild type FRB-VP16 (Homo sapiens, UniProt P42345+P62942).
T2 construct: Jurkat cells transfected with Gal4-FKBP3, wild type FRB-VP16, and UAS-SEAP; expressed in transfected cells; host or cells: Jurkat cells
Put plainly: activation of transcription in Jurkat cells transfected with Gal4-FKBP3, wild type FRB-VP16 and UAS-SEAP.
Text: as §1, with “The reporter gene product may be a conveniently detectable protein (e.g. by ELISA) or may catalyze the production of a conveniently detectable product (e.g. colored). Materials and methods for producing appropriate cell lines for conducting such assays are disclosed in the international patent applications cited above in this section. Typically used target genes include by way of example SEAP, hGH, beta-galactosidase, Green Fluorescent Protein and luciferase, for which convenient assays are commercially available.” left out

The test system of a further assay is CTLL-2 cells. Put plainly: inhibition of proliferation of CTLL-2 cells (toxicity). The method, then:
The toxicity of the lead compounds was tested by their ability to inhibit the proliferation of CTLL-2 cells, which are IL-2 dependent and highly sensitive to rapamycin (IC50<1 nM).

Where only a bound is given, the exact number is not on record here.

T1 sequence (P62942 2-108 limits assumed): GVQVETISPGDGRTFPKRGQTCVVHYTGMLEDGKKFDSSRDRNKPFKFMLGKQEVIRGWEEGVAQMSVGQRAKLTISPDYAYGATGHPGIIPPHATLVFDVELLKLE
T1 sequence (P42345 2012-2144 K2095P/T2098L/W2101F limits assumed): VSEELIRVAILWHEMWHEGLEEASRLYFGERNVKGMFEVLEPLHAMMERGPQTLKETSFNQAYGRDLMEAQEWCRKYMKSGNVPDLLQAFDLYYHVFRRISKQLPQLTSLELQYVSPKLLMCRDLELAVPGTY
T2 sequence (P62942 2-108 limits assumed): as the sequence (P62942 2-108 limits assumed) above
T2 sequence (P42345 2012-2144 limits assumed): as the sequence (P42345 2012-2144 K2095P/T2098L/W2101F limits assumed) above, with P84K, L87T, F90W counted along it

Regarding `C=C(C)CC1C=CC(C)=CCC2CCC(C)C(O)(O2)C(=O)C(=O)N2CCCCC2C(=O)OC(C(C)CC2CCC(O)C(OC)C2)CC(=O)C(C)C=C(C)C(O)C(OC)C(=O)C(C)CC(C)C=C1` (centres unmarked) [C3-methallyl rapamycin, 3-methallyl-rapamycin], in assay [1], the “amplitude of reporter gene activity” value is reported as “higher than that elicited by the rapamycin/wild type FRB-VP16 system” and the EC50 (in general, the concentration at which the effect is half-maximal) was approximately 10 nM. For the same compound, the “ability to activate transcription (SEAP reporter)” value in assay [2] is on record as “impaired”. Besides, in the assay on CTLL-2 cells (incubation with 1 μM compound), the “effect on proliferation of CTLL-2 cells” value is “no detectable effect”.
Regarding Rapamycin [reference compound], the IC50 (as a rule, the point on the concentration scale where inhibition reaches its midpoint) with CTLL-2 cells (IL-2 dependent CTLL-2 cells) was less than 1 nM.
As to `C=CCC1C=CC(C)=CCC2CCC(C)C(O)(O2)C(=O)C(=O)N2CCCCC2C(=O)OC(C(C)CC2CCC(O)C(OC)C2)CC(=O)C(C)C=C(C)C(O)C(OC)C(=O)C(C)CC(C)C=C1` (centres unmarked) [C3-allyl rapamycin, 3-allyl-rapamycin], in assay [1], the “amplitude of reporter gene activity” value was “higher than that elicited by the rapamycin/wild type FRB-VP16 system” and the EC50 was approximately 10 nM. For the same compound, the “ability to activate transcription (SEAP reporter)” value in assay [2] is “impaired”.
